From paper PMC5554137, “Evaluation of novel factor Xa inhibitors from Oxya chinensis sinuosa with anti-platelet aggregation activity” (Scientific Reports, 2017)

Assays:
Trypsin = assay: Chromogenic substrate assay, Ki determination, Trypsin; format: biochemical, human; settings: substrate S-2222
Experimental: (§1) The inhibitor (I) constants (Ki) were determined for the inhibition of a series of human enzymes (FXa, thrombin, trypsin, plasmin, protein Ca, streptokinase, tPA, and urokinase) by each compound. Chromogenic substrate assays were performed using a Labsystems IEMS (Cergy Pontoise, France) microtiter plate reader. In each assay, the compound was tested at a minimum of seven concentrations in duplicate to obtain an inhibition curve. Assays were performed according to the following general procedure. In a 96-well microtiter plate, 25 μL of compound, inhibitor solution or buffer was added to 50 μL of substrate. A volume of 25 μL of enzyme solution was added just before the plate was placed in the microtiter plate reader for 1 h at 37 °C. The hydrolysis of the substrate yields p-nitroaniline, which was continuously monitored spectrophotometrically at 405 nm. Data were collected and the initial rate of substrate hydrolysis [Vo (mOD/minute)] was calculated. Following Michaelis-Menten kinetics, the affinity of the enzyme for the substrate, in the absence of the inhibitor (Km) and in the presence of an inhibitor (Kp), was determined to be the negative inverse x-intercept of Lineweaver–Burk plots. The dissociation constant for inhibition (Ki) was calculated using the following equation: Ki = (Km·[I])/(Kp − Km) as described by Williams and Morrison[40].

α-Thrombin = molecular target: T1, α-Thrombin (Homo sapiens, UniProt P00734); assay: Chromogenic substrate assay, Ki determination, α-Thrombin; format: biochemical; settings: substrate S-2238
T1 construct: FXa converts prothrombin to thrombin; purchased Haematologic Technologies (Essex Junction, VT, USA)
Experimental: as §1

tPA = tPA (Homo sapiens, UniProt P00750); assay: Chromogenic substrate assay, Ki determination, tPA; format: biochemical; settings: substrate S-2228
Experimental: as §1

[1] = system: mouse platelet-rich plasma (PRP); assay: In vitro platelet aggregation induced by ADP; format: cell-based; settings: ADP 10 µM
Experimental: (§2) To study the effects of compounds 1–5 on platelet aggregation, we used mouse platelet-rich plasma (PRP) induced with various agonists as an in vitro model.
(§3) Figure 5 Effects of compounds 1–4 on agonist-induced platelet aggregation in vitro. Platelet-rich plasma (PRP) was preincubated for 5 min with different concentrations of compounds 1–4, or vehicle. Platelet aggregation was initiated with ADP (A, 10 µM), U46619 (B, 6 µM), or thrombin (C, 3 U/mL). D = 0.2% DMSO used as the vehicle control. Data are presented as means ± SD of three independent experiments. ^* p < 0.05 vs. vehicle alone, analyzed by one-way ANOVA, followed by Tukey multiple comparison testing.
(§4) The in vitro platelet aggregation assay was performed according to a previously reported method, [39]. Platelet rich plasma (PRP) was incubated with the indicated concentration of each compound in DMSO for 1, 3, 5, or 10 min. Samples were subsequently stimulated by ADP (10 μM), U46619 (6 μM), or thrombin (3 U/mL). Platelet aggregation was recorded using an aggregometer (Chronolog, Havertown, PA, USA).

FXa = molecular target: T2, FXa (Homo sapiens, UniProt P00742); assay: Chromogenic substrate assay, Ki determination, Factor Xa; format: biochemical; settings: substrate S-2765 (Table 3); mean ± SD (n = 5)
T2 construct: purchased Haematologic Technologies (Essex Junction, VT, USA)
Experimental: as §1

Protein Ca = Protein Ca (Homo sapiens, UniProt P04070); assay: Chromogenic substrate assay, Ki determination, Protein Ca; format: biochemical; settings: substrate S-2366
Experimental: as §1

[2] = molecular target: Streptokinase (Homo sapiens); assay: Chromogenic substrate assay, Ki determination, Streptokinase; format: biochemical; settings: substrate S-2251
Experimental: as §1

[3] = system: mouse platelet-rich plasma (PRP); assay: In vitro platelet aggregation induced by U46619; format: cell-based; settings: U46619 6 µM
Experimental: as §2, §3, §4

Urokinase = Urokinase (Homo sapiens, UniProt P00749); assay: Chromogenic substrate assay, Ki determination, Urokinase; format: biochemical; settings: substrate S-2444
Experimental: as §1

Plasmin = Plasmin (Homo sapiens, UniProt P00747); assay: Chromogenic substrate assay, Ki determination, Plasmin; format: biochemical; settings: substrate S-2251
Experimental: as §1

C57BL/6 mice [4] = assay: In vivo clotting time (aPTT after four daily injections); design: species or system mouse; settings: daily intravenous injection for four consecutive days
Experimental: (§5) To evaluate the effects of compounds 1–5 on coagulation parameters ex vivo, we measured the influence of the isolated compounds on activated partial thromboplastin time (aPTT) and prothrombin time (PT). […] The average circulating blood volume for mice is 72 mL/kg[21]. Because the average weight of mice used in this study was 27 g and the average blood volume was 2 mL, the dose of compounds 1–5 (38.6, 77.2, or 193.1 µg/kg) equaled a peripheral blood concentration of approximately 1, 2, and 5 µM, respectively.
Figure 4 Effects of compounds 1–4 on clotting and bleeding time. (A) One hour after administration (intravenous injection) of compound 1 (white box), 2 (light gray box), 3 (dark gray box), or 4 (black box), blood was collected from the mice and platelet-poor plasma (PPP) was obtained by centrifugation at 2,000 × g for 10 min at room temperature to test ex vivo activated partial thromboplastin time (aPTT). (B) Each group received a daily intravenous injection of the indicated compound for four consecutive days. Fifteen minutes after the last administration, blood samples were collected and in vivo aPTT was measured. […] Accumulated bleeding times (including periods of re-bleeding) were recorded. […] Data are presented as means ± SD of three independent experiments. *p < 0.05 vs. vehicle alone, analyzed by one-way ANOVA, followed by Tukey multiple comparison testing.

C57BL/6 mice [5] = assay: Ex vivo coagulation assay, aPTT; format: in vivo, mouse; settings: intravenous, 38 to 193 µg/kg
Experimental: as §5
Figure 4 Effects of compounds 1–4 on clotting and bleeding time. […] Fifteen minutes after the last administration, blood samples were collected and in vivo aPTT was measured. […] Accumulated bleeding times (including periods of re-bleeding) were recorded. […] Data are presented as means ± SD of three independent experiments. *p < 0.05 vs. vehicle alone, analyzed by one-way ANOVA, followed by Tukey multiple comparison testing.
Fifteen min after the administration of each compound or saline, blood was sampled, and plasma was obtained by centrifuging at 2,000 × g for 10 min at room temperature in order to measure prothrombin time (PT) and activated partial thromboplastin time (aPTT). The aPTT and PT were determined using a Thrombotimer (Behnk Elektronik, Norderstedt, Germany), according to the manufacturer’s instructions and as described previously. […] The clotting times were recorded. […]

[6] = system: mouse platelet-rich plasma (PRP); assay: In vitro platelet aggregation induced by thrombin; format: cell-based; settings: thrombin 3 U/mL
Experimental: as §2, §3, §4

rat = system: rat; design: method as in PMID 20139357, PMID 15748242; settings: higher doses, rat tail-bleeding time model; cited from earlier work
platelet aggregation = system: platelet aggregation; design: method as in PMID 20139357; settings: cited from earlier work
bleeding time models = system: bleeding time models; design: method as in PMID 20139357, PMID 15748242; settings: antithrombotic doses below the ED50 required for antithrombotic efficacy; cited from earlier work
thrombin = thrombin (Homo sapiens, UniProt P00734); design: method as in PMID 20139357; settings: cited from earlier work
C57BL/6 mice [7] = assay: FeCl3-induced arterial thrombosis mouse model; format: in vivo; settings: FeCl3 injury, tirofiban 0.2 or 0.4 mg/kg (dose for this value not stated)

Chain of Protein Ca (P04070 212-461 limits assumed): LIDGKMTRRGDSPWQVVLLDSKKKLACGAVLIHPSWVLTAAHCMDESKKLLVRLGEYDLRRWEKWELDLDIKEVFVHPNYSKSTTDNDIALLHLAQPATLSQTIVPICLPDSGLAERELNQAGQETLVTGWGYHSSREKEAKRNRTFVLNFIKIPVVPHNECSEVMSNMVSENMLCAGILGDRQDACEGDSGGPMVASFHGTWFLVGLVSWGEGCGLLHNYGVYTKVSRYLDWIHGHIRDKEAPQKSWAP
Chain of Protein Ca (P04070 43-197 limits assumed): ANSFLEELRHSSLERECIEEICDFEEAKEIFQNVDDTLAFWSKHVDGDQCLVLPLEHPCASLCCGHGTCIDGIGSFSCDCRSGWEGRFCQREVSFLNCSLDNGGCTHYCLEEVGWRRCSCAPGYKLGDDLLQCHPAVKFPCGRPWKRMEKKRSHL
Chain of tPA (P00750 36-562): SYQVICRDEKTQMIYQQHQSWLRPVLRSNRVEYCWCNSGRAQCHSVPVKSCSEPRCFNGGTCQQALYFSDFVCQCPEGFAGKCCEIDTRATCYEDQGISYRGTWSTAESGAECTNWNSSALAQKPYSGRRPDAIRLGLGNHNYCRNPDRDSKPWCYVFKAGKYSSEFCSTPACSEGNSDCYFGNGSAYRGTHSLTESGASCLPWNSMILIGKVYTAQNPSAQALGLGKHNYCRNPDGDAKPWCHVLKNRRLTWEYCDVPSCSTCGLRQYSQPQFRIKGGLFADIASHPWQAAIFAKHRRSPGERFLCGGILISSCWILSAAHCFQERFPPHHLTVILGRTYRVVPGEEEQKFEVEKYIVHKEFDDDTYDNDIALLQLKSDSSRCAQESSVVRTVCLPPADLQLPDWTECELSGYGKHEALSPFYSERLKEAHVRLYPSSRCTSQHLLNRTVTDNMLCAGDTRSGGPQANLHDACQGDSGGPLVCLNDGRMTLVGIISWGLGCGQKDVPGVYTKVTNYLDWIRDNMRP
T2 sequence (P00742 235-488 limits assumed): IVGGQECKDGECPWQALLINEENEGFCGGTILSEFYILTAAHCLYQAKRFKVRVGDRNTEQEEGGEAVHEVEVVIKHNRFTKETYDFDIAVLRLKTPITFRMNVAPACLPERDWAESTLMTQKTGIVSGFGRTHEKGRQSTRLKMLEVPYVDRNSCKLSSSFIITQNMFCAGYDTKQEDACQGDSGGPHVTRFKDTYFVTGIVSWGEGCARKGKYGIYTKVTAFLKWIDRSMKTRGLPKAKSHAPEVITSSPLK
T2 sequence (P00742 41-179 limits assumed): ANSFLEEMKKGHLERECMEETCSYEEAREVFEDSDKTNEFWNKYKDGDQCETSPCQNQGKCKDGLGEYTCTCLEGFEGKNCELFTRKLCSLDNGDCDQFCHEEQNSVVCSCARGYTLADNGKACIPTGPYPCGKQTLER
Chain of Streptokinase (Homo sapiens) (P00747 581-810 limits assumed): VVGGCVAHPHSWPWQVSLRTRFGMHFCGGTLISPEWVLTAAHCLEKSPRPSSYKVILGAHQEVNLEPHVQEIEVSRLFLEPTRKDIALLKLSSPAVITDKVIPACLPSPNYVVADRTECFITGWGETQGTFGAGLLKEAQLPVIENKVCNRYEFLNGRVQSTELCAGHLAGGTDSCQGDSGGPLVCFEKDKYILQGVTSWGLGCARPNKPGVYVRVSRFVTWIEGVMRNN
Chain of Plasmin (P00747 581-810 limits assumed): as above
Chain of Plasmin (P00747 97-580 limits assumed): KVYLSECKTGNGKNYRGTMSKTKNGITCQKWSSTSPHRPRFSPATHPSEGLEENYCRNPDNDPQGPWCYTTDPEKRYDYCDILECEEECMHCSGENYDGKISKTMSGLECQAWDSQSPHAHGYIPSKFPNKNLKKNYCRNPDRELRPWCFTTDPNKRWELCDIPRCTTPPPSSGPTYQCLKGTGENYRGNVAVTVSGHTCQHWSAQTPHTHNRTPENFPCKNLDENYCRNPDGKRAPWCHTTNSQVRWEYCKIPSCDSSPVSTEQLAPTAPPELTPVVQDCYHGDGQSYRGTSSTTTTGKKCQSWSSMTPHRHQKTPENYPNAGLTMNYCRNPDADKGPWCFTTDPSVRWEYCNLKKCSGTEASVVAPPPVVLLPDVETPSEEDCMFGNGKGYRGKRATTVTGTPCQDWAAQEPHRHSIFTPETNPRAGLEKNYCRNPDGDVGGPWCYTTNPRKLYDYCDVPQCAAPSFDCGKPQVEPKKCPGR

## CC(=O)N/C=C/c1ccc2c(c1)O[C@H](c1ccc(O)c(O)c1)[C@@H](NC(C)=O)O2 [Compound 5, (2 R,3 S)-2-(3′,4′-dihydroxyphenyl)-3-acetylamino-7-(N-acetyl-2″-aminethylene)-1,4-benzodioxane]
Trypsin
  Ki: > 250 µM
α-Thrombin
  Ki: > 250 µM
tPA
  Ki: > 250 µM
[1]
  platelet aggregation induced by ADP: did not affect
FXa
  Ki: > 250 µM
Protein Ca
  Ki: > 250 µM
[2]
  Ki: > 250 µM
[3]
  platelet aggregation induced by U46619: did not affect
Urokinase
  Ki: > 250 µM
Plasmin
  Ki: > 250 µM
C57BL/6 mice [4]
  blood clotting time in vivo (anticoagulant effect): not
C57BL/6 mice [5]
  activated partial thromboplastin time (aPTT), ex vivo: did not affect
[6]
  thrombin-induced platelet aggregation: did not affect

## O=C(NC[C@H]1CN(c2ccc(N3CCOCC3=O)cc2)C(=O)O1)c1ccc(Cl)s1 [rivaroxaban]
rat
  bleeding times: dose-dependently prolonged
Platelet aggregation
  platelet aggregation induced by ADP, thrombin, or U46619: did not affect
Bleeding time models
  bleeding times: not significantly affected
thrombin
  generation of thrombin: prolonged

## CCCCS(=O)(=O)N[C@@H](Cc1ccc(OCCCCC2CCNCC2)cc1)C(=O)O [tirofiban]
C57BL/6 mice [7]
  time to growth of large thrombi: 61.1 ± 5.1 min
